Values joined by “and” are separate entries in the source; they are usually repeats but may differ in a detail not shown here. Equal entries are not always repeated. “Also recorded” adds a separate entry of the source.
How the values were obtained:
[1] = test system: Striga hermonthica seeds; experiment: Germination bioassay: S. hermonthica seeds with root exudates of treated host seedlings (maize, cowpea, sorghum); format: in vivo; conditions: for maize root exudate-induced S. hermonthica germination: maize W22 grown 5 days with 100 μM fosmidomycin or 10 μM mevastatin, control 42±2%
[2] = test system: maize seedlings; experiment: Phenotype of inhibitor-treated maize seedlings; conditions: 10 μM mevastatin, 100 μM fosmidomycin, 25 μM fluridone, 200 μM amitrole (21° C.), 0.1-1 mM naproxen, 1 mM sodium tungstate, 0.02-0.2 mM abscisic acid
[3] = test system: Striga hermonthica seeds; format: in vivo
[4] = test system: Orobanche crenata seeds; format: in vivo; conditions: 10 μM fluridone, versus control, FIG. 3F
[5] = test system: carotenoid composition of shoots and roots of maize seedlings; experiment: Carotenoid analysis (HPLC) of shoots and roots of treated maize seedlings; format: in vivo
[6] = Roots of 10-day old maize seedlings, 10 μM fluridone, 1 mM naproxen, 0.1 mM sodium tungstate, 0.02 mM abscisic acid, n.d. = below detection limit
[7] = Shoots of 10-day old maize seedlings, 10 μM fluridone, 1 mM naproxen, 0.1 mM sodium tungstate, 0.02 mM abscisic acid, n.d. = below detection limit
[8] = maize shoots, versus control (Table 1)

CC[C@H](C)C(=O)O[C@H]1CCC=C2C=C[C@H](C)[C@H](CC[C@@H]3C[C@@H](O)CC(=O)O3)[C@H]21 [mevastatin]
maize root exudate-induced S. hermonthica germination ([1]; FIG. 3A): 33±3%

Nc1nc[nH]n1 [amitrole, 3-amino-1,2,4-triazole]
germination of S. hermonthica induced by root exudates of treated maize ([1]; maize Dent, 200 μM amitrole, grown at 21° C., versus control, FIG. 3C): lower germination | morphology / appearance of treated seedlings [2]: yellow-green phenotype

fluridone
effect on the attachment phase of Striga ([3]; control experiments with GR24 inducing full germination (data not shown)): not affecting the attachment phase | number of germinated/attached seeds/tubercles of Striga ([3]; rice, fluridone sprayed to the leaves on 3 consecutive days, even at 0.001 and 0.01 μM, FIG. 7B): strong, significant reduction | number of germinated/attached Striga seeds ([3]; rice, irrigation once with 100 mL of 0.1 μM fluridone, scored after 6 weeks, FIG. 7A): significantly reduced | germination of O. crenata seeds with fluridone-treated cowpea root exudate [4]: lower than that induced by the control; also recorded: decreased this germination by about the same percentage as for S. hermonthica | germination of S. hermonthica induced by root exudates of treated maize ([1]; 10 μM fluridone, dim light, FIG. 3B): negligible | germination of S. hermonthica induced by root exudates of treated maize ([1]; 10 μM fluridone, normal light, control 13±1%, FIG. 3B): virtually no germination | germination of S. hermonthica induced by fluridone-treated cowpea root exudates with GR24 ([1]; 10 μM fluridone-treated cowpea exudate plus 0.01 mg.L^−1 GR24, FIG. 3E): 53±3% | germination of S. hermonthica seeds induced by cowpea root exudates ([1]; cowpea watered with 10 μM fluridone for 5 days, non-treated 49±2%, FIG. 3E): 11±3% | germination induced by root exudates lower than for control maize ([1]; maize W22, 25 μM fluridone, 5 days, FIG. 3A): about 80% | sorghum root exudate induced S. hermonthica germination ([1]; sorghum, 4 μM fluridone, FIG. 3G): completely blocked | phytoene in treated roots ([5]; fluridone treated maize roots): phytoene accumulated | phytoene in treated shoots ([5]; shoot of fluridone treated maize plants): phytoene accumulated

[Na+].[Na+].[O]=[W](=[O])([O-])[O-] [sodium tungstate]
effect on root exudate induced S. hermonthica germination ([1]; maize Dent, 0.1 mM and 1 mM sodium tungstate, FIG. 3D): did not affect germination; also recorded: did not have an effect | violaxanthin, carotenoid content [5, 6]: 0.22 μg · g^−1 fwt | β-carotene, carotenoid content [5, 6]: 0.03 μg · g^−1 fwt | lutein, carotenoid content [5, 7]: 83.94 μg · g^−1 fwt | neoxanthin, carotenoid content [5, 7]: 147.58 μg · g^−1 fwt | violaxanthin, carotenoid content [5, 7]: 72.19 μg · g^−1 fwt | β-carotene, carotenoid content [5, 7]: 64.29 μg · g^−1 fwt | concentration of violaxanthin higher than in control roots ([5]; maize roots, 1 mM naproxen, 0.1 mM sodium tungstate (Table 1)): 2 fold | carotenoid accumulation in shoots (β-carotene, violaxanthin, neoxanthin, lutein) [5, 8]: did not affect carotenoid accumulation

COc1ccc2cc([C@H](C)C(=O)[O-])ccc2c1.[Na+] [naproxen, (S)-6-methoxy-α-methyl-2-naphthaleneacetic acid sodium salt]
germination of S. hermonthica seeds ([1]; in vivo, sodium salt): 20±1% and 15±2% | carotenoid accumulation in shoots (β-carotene, violaxanthin, neoxanthin, lutein) ([5]; in vivo): decreased accumulation | concentration of violaxanthin higher than in control roots ([5]; in vivo): about 3 fold | concentration of β-carotene higher than in control roots ([5]; in vivo): 2 fold | lutein, carotenoid content ([5]; in vivo): 68.58 μg · g^−1 fwt | neoxanthin, carotenoid content ([5]; in vivo): 111.81 μg · g^−1 fwt

CC1=C[C@H](O/C=C2/C(=O)O[C@@H]3c4ccccc4C[C@H]23)OC1=O [GR24]
germination of S. hermonthica induced by GR24 alone ([1]; suboptimal concentration of GR24 (0.01 mg.L^−1, FIG. 3E)): 48±1%

CC1=CC(=O)CC(C)(C)C1(O)/C=C/C(C)=C\C(=O)O (racemic) [abscisic acid, (±)-abscisic acid]
germination of S. hermonthica induced by root exudates of treated maize ([1]; 0.02 or 0.2 mM abscisic acid, without/with 10 μM fluridone, FIG. 3D): very low germination; also recorded: strongly reduced | violaxanthin, carotenoid content [5, 6]: 0.07 μg · g^−1 fwt | β-carotene, carotenoid content [5, 6]: 0.01 μg · g^−1 fwt | lutein, carotenoid content [5, 7]: 73.01 μg · g^−1 fwt | neoxanthin, carotenoid content [5, 7]: 115.29 μg · g^−1 fwt | violaxanthin, carotenoid content [5, 7]: 50.84 μg · g^−1 fwt | β-carotene, carotenoid content [5, 7]: 47.35 μg · g^−1 fwt | β-carotene concentration lower than in control roots ([5]; abscisic acid treated maize roots (0.02 mM, Table 1)): 50% and ~65% | carotenoid accumulation in shoots (β-carotene, violaxanthin, neoxanthin, lutein) [5, 8]: decreased accumulation | morphology / appearance of treated seedlings [2]: slightly thicker and more brittle

O=CN(O)CCCP(=O)(O)O [fosmidomycin]
maize root exudate-induced S. hermonthica germination ([1]; FIG. 3A): 37±2% | morphology / appearance of treated seedlings [2]: slightly pale-yellow leaves

From US20090178158A1, “RESISTANCE AGAINST PARASITIC WEEDS” (Plant Research International B.V., priority 2005, published 2009)
